Test results from US10738051B2, “β-lactamase inhibitors” (priority 2016, dated 2020).

Experiments:
[1] = system: K. pneumoniae ATCC 51503 (TEM-10/12); assay: In vitro synergistic inhibitory concentration (SIC) assay; assay type: cell-based; conditions: Klebsiella pneumoniae, ATCC51503, 37° C. 20 hours, read-out: minimum inhibitory concentration, used alone
Experimental: (§1) 2) 30 μL dimethyl sulfoxide was added to columns 2-12 of the 96-V well plate. 60 μL prepared ceftazidime was added to column 1. 30 μL ceftazidime was transferred from column 1 to column 2 and mixed with a pipette. The same operation was continued until column 11, and 30 μL of the mixture in column 11 was discarded. This was the compound mother plate.
(§2) Mix the liquid in the mother plate with a pipette.
(§3) 4) One day before the experiment, the bacterial glycerol stock which was stored in a −80° C. refrigerator was streaked on a trypticase soy agar plate (TSA), and the plate was incubated in a 37° C. incubator overnight. On the day of the experiment, the monoclonal bacterial was suspended in physiological saline and the turbidity of which was adjusted to 0.5 McFarland standard, corresponding to 1×10^8 CFU/ml. This suspension was diluted 100-fold to 1×10^6 CFU/mL with caton-adjusted Mueller-Hnton broth (CAMHB), which was used as an inoculation fluid.
(§4) 5) a 96-U plate was used as a test plate. Firstly, adding 98 μL CAMHB to each well of the test plate and transferring 2 μL solution in the mother plate to the test plate. 100 μL inoculation fluid was added to each well of the test plate.
(§5) 6) The test plate was incubated at 37° C. for 20 hours.
(§6) The above-mentioned method was also used to determine the antibacterial activity of the test compound or the antibiotic when used alone.

[2] = system: K. pneumoniae ATCC BAA-1705 (KPC); assay: as above; assay type: cell-based; conditions: Klebsiella pneumoniae, ATCCBAA1705, 37° C. 20 hours, read-out: minimum inhibitory concentration, used alone
Experimental: as §1, §2, §3, §4, §5, §6

[3] = system: K. pneumoniae ATCC BAA-1898 (KPC); assay: as above; assay type: cell-based; conditions: Klebsiella pneumoniae, ATCCBAA1898, 37° C. 20 hours, read-out: minimum inhibitory concentration, used alone
Experimental: as §1, §2, §3, §4, §5, §6

[4] = system: K. pneumoniae ATCC BAA-1899 (KPC); assay: as above; assay type: cell-based; conditions: Klebsiella pneumoniae, ATCCBAA1899, 37° C. 20 hours, read-out: minimum inhibitory concentration, used alone
Experimental: as §1, §2, §3, §4, §5, §6

[5] = system: K. pneumoniae ATCC-700603 (SHV-18); assay: as above; assay type: cell-based; conditions: Klebsiella pneumoniae, ATCC700603, 37° C. 20 hours, read-out: minimum inhibitory concentration, used alone
Experimental: as §1, §2, §3, §4, §5, §6

[6] = target: AmpC-EC (Class C) β-lactamase (UniProt P05364); assay: In vitro enzymatic assay (Nitrocefin); assay type: biochemical; conditions: Nitrocefin 0.1 mM, 1 × PBS pH 7.4, 0.1 mg/mL BSA, read-out: IC50, inhibitory activity on β-lactamase
Experimental: (§7) 2) Prepare buffer solution A (1×PBS, pH 7.4, 0.1 mg/mL BSA) for enzymatic assay;
(§8) 3) The compound mother liquor was 4-fold serial diluted for 11 times with DMSO in a 96-well tip-bottom plate, which was used as a working solution. A 96-well flat bottom plate was used as a test plate, the corresponding reaction buffer was previously added to each well, followed by addition of a corresponding volume of the working solution (100 μM-0.095 nM and 0 nM). Wherein, EDTA-Na2 was used as a control for the NDM-1 test at a concentration of 20 mM;
(§9) 4) adding the corresponding β-lactamase, and the test plate was incubated at 37° C. for 5 minutes;
(§10) 5) Adding 5 μL Nitrocefin (the final reaction volume was 100 μL), the absorbance OD490 of the reaction solution in the plate was measured by a microplate reader and the result was recorded, the absorbance was measured every minute over 30 minutes;
(§11) 6) The microplate reader could give a curve of OD490 over time. The slope of the curve (Abs2−Abs1)/(T2−T1) was calculated by taking two data points Abs1 and Abs2 within the linear range of the curve.
(§12) 7) The relative inhibition rate was calculated as follows: Slope (EC) was calculated under the condition of absence of an inhibitor, and Slop(S) was calculated under the condition of an inhibitor at a certain concentration.
(§13) The relative inhibition rate and the corresponding concentration of the inhibitor were used to calculate the IC50 value of the inhibitor on β-lactamase. In this experiment, the IC50 was calculated using the formula of GraphPad Prism 5.0, log(inhibitor) vs. normalized response-Variable slope.

[7] = target: AmpC-PA (Class C) β-lactamase (Pseudomonas aeruginosa, UniProt P24735); assay: In vitro enzymatic assay (Nitrocefin); assay type: biochemical
Experimental: as §7, §8, §9, §10, §11, §12, §13

[8] = target: CTX-M-44 (Class C) β-lactamase (Escherichia coli, UniProt Q47066); assay: In vitro enzymatic assay (Nitrocefin); assay type: biochemical
Experimental: as §7, §8, §9, §10, §11, §12, §13

[9] = target: KPC (Class A) β-lactamase (Klebsiella pneumoniae, UniProt Q9F663); assay: In vitro enzymatic assay (Nitrocefin); assay type: biochemical
Experimental: as §7, §8, §9, §10, §11, §12, §13

[10] = target: OXA-2 (Class D) β-lactamase (Escherichia coli, UniProt P0A1V9); assay: In vitro enzymatic assay (Nitrocefin); assay type: biochemical
Experimental: as §7, §8, §9, §10, §11, §12, §13

[11] = target: OXA-9 (Class D) β-lactamase (Klebsiella pneumoniae, UniProt P0A3M3); assay: In vitro enzymatic assay (Nitrocefin); assay type: biochemical
Experimental: as §7, §8, §9, §10, §11, §12, §13

[12] = target: TEM-1 (Class A) β-lactamase (Escherichia coli, UniProt P62593); assay: In vitro enzymatic assay (Nitrocefin); assay type: biochemical; conditions: Nitrocefin 0.1 mM, 1 × PBS pH 7.4, 0.1 mg/mL BSA, read-out: IC50, inhibitory activity on β-lactamase
Experimental: as §7, §8, §9, §10, §11, §12, §13

[13] = system: Klebsiella pneumoniae (ATCC BAA-1705, KPC-2); assay: Mouse lung infection model; assay type: in vivo, CD-1 mice; conditions: ip, combined with ceftazidime
Experimental: Female CD-1 mice of about 7 weeks old, weighing 26-28 g; cyclophosphamide was injected at a dose of 150 mg/kg 4 days before infection, and further 100 mg/kg 1 day before infection; the bacteria infected was Klebsiella pneumoniae (ATCC BAA-1705, KPC-2). Compound 1 and the reference compound OP-0595 were synthesized in the laboratory.
Female CD-1 mice were infected with Klebsiella pneumoniae by intranasal instillation. Each mouse was instilled with 50 μL bacterial fluid through nasal cavity at a dose of 3.14E+07 CFU per mouse. At 2 h, 4 h, 6 h and 8 h after infection, each group of mice were treated with a corresponding compound or combined compounds by intraperitoneal injection.
At 10 h after infection, the mice in group 1, 2 and 3 were euthanized, and the lung was taken out and placed in a 50 mL centrifuge tube containing 10 mL sterile normal saline, the tube was placed on wet ice and transferred to BSL-2 laboratory for CFU counting. At 20 h after infection, the mice in group 4, 5 and 6 were euthanized and treated according to the same procedure.
The lungs were ground with an IKA T10 homogenizer (the maximum speed was 20S, repeated once). […] After 24 hours, the plate was taken out and the number of single colonies grown in each homogenate with a gradient dilution, and the amount of bacterial load in the lung of each mouse was calculated.

CTX-M-44 (Class C) β-lactamase, sequence (Q47066 30-291): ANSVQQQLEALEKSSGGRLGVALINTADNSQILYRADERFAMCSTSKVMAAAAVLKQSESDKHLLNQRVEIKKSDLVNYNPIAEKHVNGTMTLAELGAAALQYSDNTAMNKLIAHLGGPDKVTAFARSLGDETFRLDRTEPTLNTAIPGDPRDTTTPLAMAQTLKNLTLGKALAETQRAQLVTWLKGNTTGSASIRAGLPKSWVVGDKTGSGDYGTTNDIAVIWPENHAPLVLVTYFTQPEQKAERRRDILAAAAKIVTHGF
KPC (Class A) β-lactamase, sequence (Q9F663 25-293 limits assumed): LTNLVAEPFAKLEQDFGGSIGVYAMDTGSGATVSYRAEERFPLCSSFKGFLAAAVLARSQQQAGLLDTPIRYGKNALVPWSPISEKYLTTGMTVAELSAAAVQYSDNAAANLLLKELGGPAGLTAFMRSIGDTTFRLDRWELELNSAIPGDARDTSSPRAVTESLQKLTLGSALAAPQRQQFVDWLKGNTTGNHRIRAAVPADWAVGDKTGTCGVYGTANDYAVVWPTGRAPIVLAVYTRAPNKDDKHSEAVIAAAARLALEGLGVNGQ
AmpC-PA (Class C) β-lactamase, sequence (P24735 27-397): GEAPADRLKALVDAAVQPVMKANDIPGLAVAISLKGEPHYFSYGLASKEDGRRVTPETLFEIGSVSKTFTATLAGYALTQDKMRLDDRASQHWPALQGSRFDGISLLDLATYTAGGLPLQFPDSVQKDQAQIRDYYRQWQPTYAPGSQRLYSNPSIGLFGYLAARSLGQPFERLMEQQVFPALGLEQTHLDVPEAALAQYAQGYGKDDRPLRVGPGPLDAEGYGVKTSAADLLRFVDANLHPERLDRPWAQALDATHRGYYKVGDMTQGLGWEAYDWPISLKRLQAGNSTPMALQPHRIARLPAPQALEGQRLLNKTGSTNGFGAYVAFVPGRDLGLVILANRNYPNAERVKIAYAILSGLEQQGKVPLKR
OXA-9 (Class D) β-lactamase, sequence (P0A3M3 25-274): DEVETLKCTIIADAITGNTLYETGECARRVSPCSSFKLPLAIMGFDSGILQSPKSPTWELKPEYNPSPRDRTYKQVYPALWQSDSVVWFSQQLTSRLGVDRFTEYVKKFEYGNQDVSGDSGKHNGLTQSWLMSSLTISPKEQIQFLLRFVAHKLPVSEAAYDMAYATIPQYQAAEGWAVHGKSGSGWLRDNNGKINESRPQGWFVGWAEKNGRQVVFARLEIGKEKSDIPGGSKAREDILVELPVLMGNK
TEM-1 (Class A) β-lactamase, sequence (P62593 24-286 limits assumed): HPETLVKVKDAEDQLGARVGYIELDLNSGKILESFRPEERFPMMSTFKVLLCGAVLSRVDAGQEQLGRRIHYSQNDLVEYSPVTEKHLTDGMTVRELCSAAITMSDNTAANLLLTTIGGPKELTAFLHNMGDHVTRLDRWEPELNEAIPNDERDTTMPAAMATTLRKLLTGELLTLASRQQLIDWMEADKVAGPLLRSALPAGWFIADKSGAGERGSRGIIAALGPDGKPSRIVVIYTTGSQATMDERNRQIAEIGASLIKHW
OXA-2 (Class D) β-lactamase, sequence (P0A1V9 22-275): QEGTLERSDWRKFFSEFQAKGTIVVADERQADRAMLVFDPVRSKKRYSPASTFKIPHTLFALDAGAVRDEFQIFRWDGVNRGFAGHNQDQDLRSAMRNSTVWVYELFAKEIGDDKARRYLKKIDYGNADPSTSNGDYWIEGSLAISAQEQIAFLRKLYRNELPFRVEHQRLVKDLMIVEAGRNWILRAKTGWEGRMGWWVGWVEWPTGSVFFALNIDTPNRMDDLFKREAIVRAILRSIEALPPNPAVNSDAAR

For `N=C(N)NOCCONC(=O)[C@@H]1CC[C@@H]2CN1C(=O)N2OS(=O)(=O)O` [Compound 1], the MIC [1] was > 128 µg/mL, the MIC [2] was 128 µg/mL and the MIC [3] was > 128 µg/mL. The MIC [4] was > 128 µg/mL, the MIC [5] was > 128 µg/mL and the IC50 [6] was 20.2 nM. The IC50 [7] was 98.6 nM, the IC50 [8] was 31.9 nM and the IC50 [9] was 43.1 nM. It also gave an IC50 [10] of 1550 nM, an IC50 [11] of 5000 nM and an IC50 [12] of 38.9 nM. For the same compound, the “reduction of the amount of bacterial load in the lung compared with the reference group of OP-0595” value ([13]; female CD-1 mice, K. pneumoniae ATCC BAA-1705 (KPC-2), 25/6.25 mpk and 50/12.5 mpk) was 0.5-1.5 logs and the “potency compared with reference compound OP-0595” value ([13]; mouse lung infection model) was “significantly more potent”.
